Read-outs that look alike come from different tables or passages of the source.
Experiments:
Assay type in all cases: cell-based
[1] = target: protein kinases (human kinome) (Homo sapiens, UniProt P06241); settings: for logFC FYN: Accession P06241-1; for logFC: FYN (P06241-1), direction down
[2] = target: protein kinases (human kinome) (Homo sapiens, UniProt Q15418); settings: for logFC: RPS6KA1 (Q15418-1), direction down
[3] = target: T1, protein kinases (human kinome) (Homo sapiens, UniProt O00444)
T1 sequence (O00444 1-970): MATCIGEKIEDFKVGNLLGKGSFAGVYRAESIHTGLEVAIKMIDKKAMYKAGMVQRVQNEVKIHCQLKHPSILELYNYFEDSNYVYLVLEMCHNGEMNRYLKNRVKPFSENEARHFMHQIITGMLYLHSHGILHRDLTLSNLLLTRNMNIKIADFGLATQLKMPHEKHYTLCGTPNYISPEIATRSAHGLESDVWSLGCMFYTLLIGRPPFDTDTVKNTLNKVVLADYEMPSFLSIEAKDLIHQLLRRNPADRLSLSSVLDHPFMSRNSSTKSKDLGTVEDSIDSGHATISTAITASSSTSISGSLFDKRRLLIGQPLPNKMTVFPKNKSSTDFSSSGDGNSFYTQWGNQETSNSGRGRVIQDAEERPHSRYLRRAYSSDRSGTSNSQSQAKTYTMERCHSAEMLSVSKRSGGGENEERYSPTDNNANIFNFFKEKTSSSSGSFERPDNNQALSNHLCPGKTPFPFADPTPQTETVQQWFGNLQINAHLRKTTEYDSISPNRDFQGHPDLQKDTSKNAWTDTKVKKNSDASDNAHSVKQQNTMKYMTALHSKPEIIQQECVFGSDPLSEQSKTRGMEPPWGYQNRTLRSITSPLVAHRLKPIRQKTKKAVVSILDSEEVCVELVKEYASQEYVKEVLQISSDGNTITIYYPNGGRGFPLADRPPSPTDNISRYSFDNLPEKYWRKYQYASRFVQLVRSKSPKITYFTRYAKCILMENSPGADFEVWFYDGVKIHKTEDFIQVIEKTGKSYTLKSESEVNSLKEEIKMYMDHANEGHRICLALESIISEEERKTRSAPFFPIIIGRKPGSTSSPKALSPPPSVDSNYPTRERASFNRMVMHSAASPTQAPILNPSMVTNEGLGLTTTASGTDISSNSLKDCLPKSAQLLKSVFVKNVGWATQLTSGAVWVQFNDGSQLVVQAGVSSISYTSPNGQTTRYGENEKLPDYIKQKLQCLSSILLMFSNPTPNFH

[4] = target: protein kinases (human kinome) (Homo sapiens, UniProt P54646); settings: for logFC: PRKAA2 (P54646)
Sequence of protein kinases (human kinome) (Homo sapiens, UniProt P54646) (P54646 whole entry): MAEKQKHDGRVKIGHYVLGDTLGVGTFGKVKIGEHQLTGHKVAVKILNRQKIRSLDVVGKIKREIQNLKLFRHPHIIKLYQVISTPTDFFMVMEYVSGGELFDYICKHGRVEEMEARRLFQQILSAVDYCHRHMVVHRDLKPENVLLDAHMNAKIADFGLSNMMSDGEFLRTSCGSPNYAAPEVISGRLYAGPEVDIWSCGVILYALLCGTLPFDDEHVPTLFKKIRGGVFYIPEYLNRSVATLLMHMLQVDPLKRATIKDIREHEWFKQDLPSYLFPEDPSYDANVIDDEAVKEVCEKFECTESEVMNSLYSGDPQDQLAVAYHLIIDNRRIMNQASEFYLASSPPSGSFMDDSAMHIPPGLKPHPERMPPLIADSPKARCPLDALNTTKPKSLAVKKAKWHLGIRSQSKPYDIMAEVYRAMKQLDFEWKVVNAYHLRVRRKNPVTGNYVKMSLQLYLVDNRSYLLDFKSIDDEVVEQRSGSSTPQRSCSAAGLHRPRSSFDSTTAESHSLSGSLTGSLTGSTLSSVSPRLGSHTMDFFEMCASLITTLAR

[5] = target: T2, protein kinases (human kinome) (Homo sapiens, UniProt Q8TD19); settings: experiment wp146
T2 sequence (Q8TD19 1-979): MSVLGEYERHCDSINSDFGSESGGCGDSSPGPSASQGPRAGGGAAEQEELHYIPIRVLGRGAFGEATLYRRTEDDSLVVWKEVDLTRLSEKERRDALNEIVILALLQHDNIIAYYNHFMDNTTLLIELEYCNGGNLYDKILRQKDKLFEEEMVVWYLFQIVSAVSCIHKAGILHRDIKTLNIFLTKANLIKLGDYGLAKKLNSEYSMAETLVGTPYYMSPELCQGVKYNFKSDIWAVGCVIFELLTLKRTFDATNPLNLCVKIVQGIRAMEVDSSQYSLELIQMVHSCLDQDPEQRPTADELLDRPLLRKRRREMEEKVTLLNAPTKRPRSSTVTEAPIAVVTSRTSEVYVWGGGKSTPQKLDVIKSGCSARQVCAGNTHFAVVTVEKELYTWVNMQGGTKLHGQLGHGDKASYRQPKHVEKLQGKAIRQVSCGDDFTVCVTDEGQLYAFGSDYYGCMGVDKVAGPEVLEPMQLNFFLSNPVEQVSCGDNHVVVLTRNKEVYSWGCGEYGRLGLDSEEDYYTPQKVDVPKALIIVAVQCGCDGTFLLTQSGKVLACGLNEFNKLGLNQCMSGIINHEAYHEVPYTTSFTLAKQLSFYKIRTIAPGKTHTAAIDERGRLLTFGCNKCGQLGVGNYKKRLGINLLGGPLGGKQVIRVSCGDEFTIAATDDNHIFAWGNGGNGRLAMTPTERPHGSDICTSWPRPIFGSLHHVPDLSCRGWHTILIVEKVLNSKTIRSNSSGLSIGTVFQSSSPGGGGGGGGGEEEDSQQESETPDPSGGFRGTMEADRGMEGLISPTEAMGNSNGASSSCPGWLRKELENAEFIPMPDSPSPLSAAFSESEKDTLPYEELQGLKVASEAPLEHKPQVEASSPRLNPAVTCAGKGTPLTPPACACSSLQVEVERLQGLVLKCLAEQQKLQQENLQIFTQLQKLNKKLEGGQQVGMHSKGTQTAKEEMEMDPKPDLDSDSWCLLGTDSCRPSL

[6] = target: protein kinases (human kinome) (Homo sapiens, UniProt P06493); settings: CDK1 P06493; experiment wp146
Sequence of protein kinases (human kinome) (Homo sapiens, UniProt P06493) (P06493 whole entry): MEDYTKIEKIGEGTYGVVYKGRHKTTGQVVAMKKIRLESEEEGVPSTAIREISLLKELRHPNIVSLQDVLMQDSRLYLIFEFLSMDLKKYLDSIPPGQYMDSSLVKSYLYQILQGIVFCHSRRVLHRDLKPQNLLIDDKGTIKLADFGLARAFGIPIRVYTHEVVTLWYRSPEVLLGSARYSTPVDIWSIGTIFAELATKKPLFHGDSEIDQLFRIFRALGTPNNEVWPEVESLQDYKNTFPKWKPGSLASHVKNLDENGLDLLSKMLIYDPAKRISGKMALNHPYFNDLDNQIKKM

Sequence of protein kinases (human kinome) (Homo sapiens, UniProt P06241) (P06241 whole entry): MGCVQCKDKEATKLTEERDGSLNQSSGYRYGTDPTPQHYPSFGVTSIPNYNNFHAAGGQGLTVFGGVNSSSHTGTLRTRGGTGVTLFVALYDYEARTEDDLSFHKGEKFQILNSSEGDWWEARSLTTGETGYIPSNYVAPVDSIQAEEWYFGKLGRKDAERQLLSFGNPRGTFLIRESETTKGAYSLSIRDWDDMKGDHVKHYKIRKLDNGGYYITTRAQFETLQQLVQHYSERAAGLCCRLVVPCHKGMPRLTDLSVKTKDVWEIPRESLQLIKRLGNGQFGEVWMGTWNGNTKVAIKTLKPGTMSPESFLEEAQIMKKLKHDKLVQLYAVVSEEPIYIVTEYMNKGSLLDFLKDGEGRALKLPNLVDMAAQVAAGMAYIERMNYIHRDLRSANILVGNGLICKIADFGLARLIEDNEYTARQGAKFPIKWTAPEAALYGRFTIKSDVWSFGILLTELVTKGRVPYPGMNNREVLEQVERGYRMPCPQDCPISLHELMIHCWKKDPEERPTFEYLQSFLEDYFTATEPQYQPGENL
Sequence of protein kinases (human kinome) (Homo sapiens, UniProt Q15418) (Q15418 whole entry): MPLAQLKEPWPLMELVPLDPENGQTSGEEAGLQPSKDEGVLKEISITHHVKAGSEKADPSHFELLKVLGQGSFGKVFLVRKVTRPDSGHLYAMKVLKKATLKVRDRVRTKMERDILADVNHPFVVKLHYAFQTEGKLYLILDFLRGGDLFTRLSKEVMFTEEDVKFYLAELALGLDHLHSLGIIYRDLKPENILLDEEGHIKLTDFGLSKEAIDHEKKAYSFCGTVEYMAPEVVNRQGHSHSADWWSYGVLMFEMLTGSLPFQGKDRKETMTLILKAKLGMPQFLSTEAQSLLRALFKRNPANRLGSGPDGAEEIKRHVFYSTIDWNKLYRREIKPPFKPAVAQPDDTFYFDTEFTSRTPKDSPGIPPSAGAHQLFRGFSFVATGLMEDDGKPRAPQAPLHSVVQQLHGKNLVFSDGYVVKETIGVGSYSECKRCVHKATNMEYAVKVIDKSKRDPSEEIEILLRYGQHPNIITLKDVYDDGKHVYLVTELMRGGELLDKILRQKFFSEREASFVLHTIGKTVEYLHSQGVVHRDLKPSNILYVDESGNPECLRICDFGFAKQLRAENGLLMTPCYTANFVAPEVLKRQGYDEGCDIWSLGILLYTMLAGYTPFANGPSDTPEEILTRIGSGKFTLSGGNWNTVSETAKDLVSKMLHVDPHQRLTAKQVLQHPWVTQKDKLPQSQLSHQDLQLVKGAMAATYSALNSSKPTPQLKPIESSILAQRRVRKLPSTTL

CC(C)S(=O)(=O)c1ccccc1Nc1nc(Nc2ccc(N3CCN(CCOCCNC(=O)CNc4cccc5c4C(=O)N(C4CCC(=O)NC4=O)C5=O)CC3)cc2)ncc1Cl (stereo not shown) [SK.3.91]
logFC FYN ([1]; experiment wp105): −0.3586 | logFC FYN ([1]; experiment wp107): −0.4288 | logFC ([1]; experiment wp105): −0.3586 | logFC ([1]; experiment wp107): −0.4288 | logFC RPS6KA1 (Q15418-1) ([2]; Experiment wp172): −0.4561 | logFC ([2]; experiment wp107): −0.3671 | logFC ([2]; experiment wp160, 4 hr): −0.363 | logFC ([2]; experiment wp172): −0.4561 | logFC RPS6KA1 (Q15418-1) ([2]; experiment wp107): −0.3671 | logFC RPS6KA1 (Q15418-1) ([2]; experiment wp160, 4 hr): −0.363 | logFC PLK4 ([3]; Accession O00444, experiment wp103, direction down): −1.243 | logFC PLK4 ([3]; Accession O00444, experiment wp107, direction down): −1.036 | logFC PLK4 ([3]; Accession O00444, experiment wp133, 1 hr, direction down): −0.726 | logFC PLK4 ([3]; Accession O00444, experiment wp133, 2 hr, direction down): −1.523 | logFC PLK4 ([3]; Accession O00444, experiment wp133, 4 hr, direction down): −2.258 | logFC PLK4 ([3]; Accession O00444, experiment wp160, 2 hr, direction down): −0.9266 | logFC PLK4 ([3]; Accession O00444, experiment wp160, 4 hr, direction down): −1.169 | logFC PLK4 ([3]; PLK4 (O00444), experiment wp133, 1 hr): −0.726 | logFC PLK4 ([3]; PLK4 (O00444), experiment wp133, 2 hr): −1.523 | logFC PLK4 ([3]; PLK4 (O00444), experiment wp133, 4 hr): −2.258 | logFC PLK4 ([3]; PLK4 (O00444), experiment wp160, 2 hr): −0.9266 | logFC PLK4 ([3]; PLK4 (O00444), experiment wp160, 4 hr): −1.169 | logFC PLK4 (O00444) ([3]; experiment wp103): −1.243 | logFC PLK4 (O00444) ([3]; experiment wp107): −1.036 | logFC of PRKAA2 (P54646) ([4]; Experiment wp172): −0.926 | logFC ([4]; experiment wp105): −0.9029 | logFC ([4]; experiment wp172): −0.926 | logFC of PRKAA2 (P54646) ([4]; experiment wp105): −0.9029

Cc1cc(Nc2ncc(Br)c(Nc3cccc(F)c3C(N)=O)n2)ccc1S(=O)(=O)NCCOCCOCCOCCOCCNc1cccc2c1C(=O)N(C1CCC(=O)NC1=O)C2=O (stereo not shown) [TMX.02.174]
logFC ([5]; NEK9 (Q8TD19), direction down): −0.3626 | logFC ([5]; NEK9 Q8TD19): −0.3626 | logFC [6]: −1.629 | logFC CDK1 [6]: −1.629 | logFC ([4]; experiment wp146): −1.826 | logFC of PRKAA2 (P54646) ([4]; experiment wp146): −1.826

Source: patent US20240269139A1, “COMPOUNDS FOR TARGETED PROTEIN DEGRADATION OF KINASES” (DANA-FARBER CANCER INSTITUTE, INC., priority 2020, published 2024)
